The source of these data is US8258140B2 (Astrazeneca AB, priority 2009, dated 2012).

The structures appear in SMILES notation.

The assay concerns the target T1, Androgen Receptor (AR) in the LNCaP prostate carcinoma cell line (Homo sapiens, UniProt P10275, T878A).
T1 construct: cell based immuno-fluorescence assay using the LNCaP prostate epithelial cell line; host or cells: LNCaP clone FGC
T1 sequence (P10275 1-920 T878A): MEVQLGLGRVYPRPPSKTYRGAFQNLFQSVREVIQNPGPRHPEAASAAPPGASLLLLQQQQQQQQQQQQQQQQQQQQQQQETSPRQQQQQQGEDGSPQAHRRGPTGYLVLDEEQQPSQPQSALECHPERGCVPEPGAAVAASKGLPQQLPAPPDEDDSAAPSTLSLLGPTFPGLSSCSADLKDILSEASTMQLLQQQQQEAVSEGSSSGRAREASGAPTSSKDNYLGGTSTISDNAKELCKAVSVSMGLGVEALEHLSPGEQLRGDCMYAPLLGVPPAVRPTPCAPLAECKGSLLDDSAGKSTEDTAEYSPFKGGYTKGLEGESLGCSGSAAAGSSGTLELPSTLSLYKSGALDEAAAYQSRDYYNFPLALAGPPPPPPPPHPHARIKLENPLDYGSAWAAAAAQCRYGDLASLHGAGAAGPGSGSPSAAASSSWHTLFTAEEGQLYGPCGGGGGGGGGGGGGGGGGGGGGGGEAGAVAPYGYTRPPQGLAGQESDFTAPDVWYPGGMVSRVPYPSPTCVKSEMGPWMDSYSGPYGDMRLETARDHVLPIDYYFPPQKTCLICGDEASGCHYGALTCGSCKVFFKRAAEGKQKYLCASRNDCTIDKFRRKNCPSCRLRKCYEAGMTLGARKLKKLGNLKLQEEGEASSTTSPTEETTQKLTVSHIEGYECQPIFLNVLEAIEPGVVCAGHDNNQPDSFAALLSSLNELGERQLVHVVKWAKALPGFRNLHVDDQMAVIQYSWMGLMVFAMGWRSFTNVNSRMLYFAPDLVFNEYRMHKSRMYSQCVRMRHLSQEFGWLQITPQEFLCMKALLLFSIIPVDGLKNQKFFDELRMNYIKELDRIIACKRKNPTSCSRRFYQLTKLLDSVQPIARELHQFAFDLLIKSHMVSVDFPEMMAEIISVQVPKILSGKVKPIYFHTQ
Kind of assay: LNCaP Androgen Receptor Down-Regulation Cell Assay (immunofluorescence end point). Format: cell-based. The settings on record: LNCaP cells, compound incubation 20-22 hours, concentration giving 50% reduction of the AR signal. The protocol:
The ability of compounds to reduce Androgen Receptor (AR) numbers was assessed in a cell based immuno-fluorescence assay using the LNCaP prostate epithelial cell line.
This immunofluorescence end point assay measures the ability of a test compound to down-regulate and reduce measured levels of the AR in the LNCaP prostate carcinoma cell line (LNCaP clone FGC (CRL-1740) obtained from the American Type Culture Collection (ATCC)).
LNCaP cells were cultured in Growth Medium (phenol red free Roswell Park Memorial Institute (RPMI) 1640 (Invitrogen Code no. 11835-063) containing 2 mM L-Glutamine (Invitrogen Code no. 25030-024) and 1% (v/v) Penicillin/Streptomycin (10000 units/ml Penicillin and 10000 μg/ml of Streptomycin utilising penicillin G (sodium salt) and streptomycin sulphate: prepared in normal saline, Invitrogen Code no. 15140122) and 10% (v/v) foetal bovine serum (FBS)) in a 5% CO2 air incubator at 37° C. Cells for assay were harvested from T175 stock flasks by washing once in PBS (phosphate buffered saline, pH 7.4) (Invitrogen Code no. 14190-094) and harvested using 5 mls of 1× Trypsin/ethylaminediaminetetraacetic acid (EDTA) (10× Trypsin-EDTA, 5.0 g/L Trypsin, 2.0 g/L of EDTA.4Na and 8.5 g/L of NaCl, without Phenol Red, Invitrogen Code no. 15400-054) diluted in PBS solution. A 5 ml volume of Growth Medium was added to each flask (as above except that 5% (v/v) charcoal stripped FBS (HyClone Code no. SH30068.03) was included instead of 10% (v/v) FBS). Cells were syringed at least twice using a sterile 18 G×1.5″ (1.2×40 mm) broad gauge needle and cell density was measured using a haemocytometer. Cells were further diluted in Growth Medium plus 5% (v/v) charcoal stripped FBS and seeded at a density of 6.5×10^3 cells per well (in 90 ul) into transparent, black, tissue culture treated 96 well plates (Packard, No. 6005182).
Test data reported herein was generated using two different compounds preparation and dosing methods. In method (1) a 10 mM compound stock solution in 100% (v/v) DMSO was serially diluted in 4-fold steps in 100% (v/v) DMSO using a Thermo Scientific Matrix SerialMate. The diluted compounds were then further diluted 1 in 30 in assay media using a Thermo Scientific Matrix PlateMate and a 10 μl aliquot of this dilution was dosed to cells manually using a multi-channel pipette. In method (2) starting with a 10 mM compound stock solution, the Labcyte Echo 550 was used to generate a compound concentration response set diluted in 30 μl of assay media. The Echo 550 is a liquid handler that uses acoustic technology to perform direct microplate-to-microplate transfers of DMSO compound solutions. The system can be programmed to transfer volumes as low as 2.5 nL in multiple increments between microplates and in so doing generates a serial dilution of compound which is then back-filled to normalise the DMSO concentration across the dilution range. A 10 μl volume of diluted compound is then dosed to cells using a Thermo Scientific Matrix PlateMate.
Plates were incubated overnight at 37° C., 5% CO2. Wells were then dosed with compound prepared by one of the 2 methods above and further incubated for 20-22 hours at 37° C., 5% CO2. Plates were fixed by the addition of 20 μl of 10% (v/v) formaldehyde solution (in PBS) to each well (final formaldehyde conc.=1.67% (v/v)) and left at room temperature for 10 mins. This fixative solution was removed and cells were washed with 250 μl of PBS/0.05% (v/v) Tween 20 (PBST) using an automated plate washer. This process was then repeated twice more.
Immunostaining was performed at room temperature. Cells were permeabilised by the addition of 35 μl of PBS containing 0.5% Tween 20 and incubated for 1 hour at room temperature. Permeabilisation solution was removed and cells were washed with 250 μl of PBST using an automated plate washer. This process was then repeated twice more. […]
`FC(F)(F)c1nnc2n1N=C(N1CCC(c3c[nH]c4ncccc34)CC1)CC2` [Example 18, 6-[4-(1H-pyrrolo[2,3-b]pyridin-3-yl)piperidin-1-yl]-3-(trifluoromethyl)-7,8-dihydro[1,2,4]triazolo[4,3-b]pyridazine] had a concentration for half-maximal inhibition (IC50) of 3.2 µM. Compound `COCCN(C)C(=O)COc1ccc(C2CCN(C3=Nn4c(nnc4C(F)(F)F)CC3)CC2)cc1` [Example 19, N-(2-methoxyethyl)-N-methyl-2-(4-{1-[3-(trifluoromethyl)-7,8-dihydro[1,2,4]triazolo[4,3-b]pyridazin-6-yl]piperidin-4-yl}phenoxy)acetamide] showed an IC50 of 2.9 µM. `CN(C)C(=O)COc1ccc(C2CCN(C3=Nn4c(nnc4C(F)(F)F)CC3)CC2)cc1` [Example 20, N,N-dimethyl-2-(4-{1-[3-(trifluoromethyl)-7,8-dihydro[1,2,4]triazolo[4,3-b]pyridazin-6-yl]piperidin-4-yl}phenoxy)acetamide] gave an IC50 of 4.1 µM. The IC50 values of the last two compounds are within 1.5-fold of each other. As for `CN(CCO)C(=O)COc1ccc(C2CCN(C3=Nn4c(nnc4C(F)(F)F)CC3)CC2)cc1` [Example 21, N-(2-hydroxyethyl)-N-methyl-2-(4-{1-[3-(trifluoromethyl)-7,8-dihydro[1,2,4]triazolo[4,3-b]pyridazin-6-yl]piperidin-4-yl}phenoxy)acetamide], the figure is 26 µM; as for `CCCCN(C)C(=O)COc1ccc(C2CCN(C3=Nn4c(nnc4C(F)(F)F)CC3)CC2)cc1` [Example 22, N-butyl-N-methyl-2-(4-{1-[3-(trifluoromethyl)-7,8-dihydro[1,2,4]triazolo[4,3-b]pyridazin-6-yl]piperidin-4-yl}phenoxy)acetamide], 0.46 µM. For `COCCN(C)C(=O)CCCOc1ccc(C2CCN(C3=Nn4c(nnc4C(F)(F)F)CC3)CC2)cc1` [Example 23, N-(2-methoxyethyl)-N-methyl-4-(4-{1-[3-(trifluoromethyl)-7,8-dihydro[1,2,4]triazolo[4,3-b]pyridazin-6-yl]piperidin-4-yl}phenoxy)butanamide] the value was 1.3 µM. As for `CN(CCO)C(=O)CCCOc1ccc(C2CCN(C3=Nn4c(nnc4C(F)(F)F)CC3)CC2)cc1` [Example 24], the figure is 2.5 µM.

With `CCCCC(=O)N1CCN(CCOc2ccc(C3CCN(C4=Nn5c(nnc5C(F)(F)F)CC4)CC3)cc2)CC1` [Example 25, 6-(4-{4-[2-(4-pentanoylpiperazin-1-yl)ethoxy]phenyl}piperidin-1-yl)-3-(trifluoromethyl)-7,8-dihydro[1,2,4]triazolo[4,3-b]pyridazine], the 50% inhibitory concentration (IC50) turned out to be 0.93 µM. As for `CS(=O)(=O)N1CCN(CCOc2ccc(C3CCN(C4=Nn5c(nnc5C(F)(F)F)CC4)CC3)cc2)CC1` [Example 26, 6-[4-(4-{2-[4-(methylsulfonyl)piperazin-1-yl]ethoxy}phenyl)piperidin-1-yl]-3-(trifluoromethyl)-7,8-dihydro[1,2,4]triazolo[4,3-b]pyridazine], the figure is 1.5 µM. For `CCCCC(=O)N1CCN(CCCOc2ccc(C3CCN(C4=Nn5c(nnc5C(F)(F)F)CC4)CC3)cc2)CC1` [Example 27, 6-(4-{4-[3-(4-pentanoylpiperazin-1-yl)propoxy]phenyl}piperidin-1-yl)-3-(trifluoromethyl)-7,8-dihydro[1,2,4]triazolo[4,3-b]pyridazine] the value was 0.67 µM; for `CS(=O)(=O)N1CCN(CCCOc2ccc(C3CCN(C4=Nn5c(nnc5C(F)(F)F)CC4)CC3)cc2)CC1` [Example 28, 6-[4-(4-{3-[4-(methylsulfonyl)piperazin-1-yl]propoxy}phenyl)piperidin-1-yl]-3-(trifluoromethyl)-7,8-dihydro[1,2,4]triazolo[4,3-b]pyridazine], 1 µM. For `CC(=O)N1CCN(CCCOc2ccc(N3CCN(C4=Nn5c(nnc5C(F)(F)F)CC4)CC3)cc2)CC1` [Example 29, 6-(4-{4-[3-(4-acetylpiperazin-1-yl)propoxy]phenyl}piperazin-1-yl)-3-(trifluoromethyl)-7,8-dihydro[1,2,4]triazolo[4,3-b]pyridazine] the value was 10 µM. Compound `CCCCC(=O)N1CCN(CCCOc2ccc(N3CCN(C4=Nn5c(nnc5C(F)(F)F)CC4)CC3)cc2)CC1` [Example 30, 6-(4-{4-[3-(4-pentanoylpiperazin-1-yl)propoxy]phenyl}piperazin-1-yl)-3-(trifluoromethyl)-7,8-dihydro[1,2,4]triazolo[4,3-b]pyridazine] yielded an IC50 of 6.7 µM. The IC50 values of the last two compounds are within 1.5-fold of each other. As for `CS(=O)(=O)N1CCN(CCCOc2ccc(N3CCN(C4=Nn5c(nnc5C(F)(F)F)CC4)CC3)cc2)CC1` [Example 31], the figure is 18 µM. As for `CC(=O)N1CCN(CCOc2ccc(N3CCN(C4=Nn5c(nnc5C(F)(F)F)CC4)CC3)cc2)CC1` [Example 32, 6-(4-{4-[2-(4-acetylpiperazin-1-yl)ethoxy]phenyl}piperazin-1-yl)-3-(trifluoromethyl)-7,8-dihydro[1,2,4]triazolo[4,3-b]pyridazine], the figure is 20 µM; as for `CCCCC(=O)N1CCN(CCOc2ccc(N3CCN(C4=Nn5c(nnc5C(F)(F)F)CC4)CC3)cc2)CC1` [Example 33, 6-(4-{4-[2-(4-pentanoylpiperazin-1-yl)ethoxy]phenyl}piperazin-1-yl)-3-(trifluoromethyl)-7,8-dihydro[1,2,4]triazolo[4,3-b]pyridazine], 7.8 µM.

Regarding `CS(=O)(=O)N1CCN(CCOc2ccc(N3CCN(C4=Nn5c(nnc5C(F)(F)F)CC4)CC3)cc2)CC1` [Example 34, 6-[4-(4-{2-[4-(methylsulfonyl)piperazin-1-yl]ethoxy}phenyl)piperazin-1-yl]-3-(trifluoromethyl)-7,8-dihydro[1,2,4]triazolo[4,3-b]pyridazine], the IC50 is 23 µM. This IC50 lies about 2.9-fold higher than the previous one. As for `FC(F)(F)CCCOc1ccc(C2CCN(C3=Nn4c(nnc4C(F)(F)F)CC3)CC2)cc1` [Example 35, 6-{4-[4-(4,4,4-trifluorobutoxy)phenyl]piperidin-1-yl}-3-(trifluoromethyl)-7,8-dihydro[1,2,4]triazolo[4,3-b]pyridazine], the figure is 2.3 µM.

The IC50 is the concentration that gives 50% inhibition. A high value points to a need for much substance.
